Assay results: ChEMBL document CHEMBL3045563, “Synthesis and in vitro antibacterial activity of schiff bases of N-substituted isatins as effective scaffolds” (2013)
Values after ≈ are worked out from the molar mass of the structure shown. Blank lines part the entries; values can stand above or below the molecule they belong to.

Assays:
Type in all cases: functional
[1] = system: Staphylococcus epidermidis; test: Antibacterial activity against Staphylococcus epidermidis NCIM 2493 assessed as diameter of growth zone inhibition after 24 hr by disk diffusion method
[2] = system: Proteus vulgaris; test: Antibacterial activity against Proteus vulgaris NCIM 2027 assessed as diameter of growth zone inhibition after 24 hr by disk diffusion method
[3] = system: Escherichia coli; test: Antibacterial activity against Escherichia coli NCIM 2065 assessed as diameter of growth zone inhibition after 24 hr by disk diffusion method
[4] = system: Pseudomonas aeruginosa; test: Antibacterial activity against Pseudomonas aeruginosa NCIM 2036 assessed as diameter of growth zone inhibition after 24 hr by disk diffusion method
[5] = system: Bacillus subtilis; test: Antibacterial activity against Bacillus subtilis NCIM 2156 assessed as diameter of growth zone inhibition after 24 hr by disk diffusion method
[6] = system: Proteus vulgaris; test: Antibacterial activity against Proteus vulgaris NCIM 2027 assessed as growth inhibition after 48 hr by NCCLS broth dilution method; settings: NCIM 2027, 48 h
[7] = system: Staphylococcus aureus; test: Antibacterial activity against Staphylococcus aureus NCIM 2079 assessed as diameter of growth zone inhibition after 24 hr by disk diffusion method
[8] = system: Staphylococcus epidermidis; test: Antibacterial activity against Staphylococcus epidermidis NCIM 2493 assessed as growth inhibition after 48 hr by NCCLS broth dilution method; settings: NCIM 2493, 48 h
[9] = system: Escherichia coli; test: Antibacterial activity against Escherichia coli NCIM 2065 assessed as growth inhibition after 48 hr by NCCLS broth dilution method; settings: NCIM 2065, 48 h
[10] = system: Bacillus subtilis; test: Antibacterial activity against Bacillus subtilis NCIM 2156 assessed as growth inhibition after 48 hr by NCCLS broth dilution method; settings: NCIM 2156, 48 h
[11] = system: Pseudomonas aeruginosa; test: Antibacterial activity against Pseudomonas aeruginosa NCIM 2036 assessed as growth inhibition after 48 hr by NCCLS broth dilution method; settings: NCIM 2036, 48 h
[12] = system: Staphylococcus aureus; test: Antibacterial activity against Staphylococcus aureus NCIM 2079 assessed as growth inhibition after 48 hr by NCCLS broth dilution method; settings: NCIM 2079, 48 h

Structure (SMILES): Cc1cc(/N=C2\C(=O)N(Cc3ccccc3)c3ccc(OC(F)(F)F)cc32)ccc1N1C(=O)c2ccc(Cl)cc2C1=O
diameter of the inhibition zone (DIZ) [1]: 8 mm
diameter of the inhibition zone (DIZ) [2]: 12 mm
diameter of the inhibition zone (DIZ) [3]: 17 mm
diameter of the inhibition zone (DIZ) [4]: 10 mm
diameter of the inhibition zone (DIZ) [5]: 12 mm
MIC [6]: 20 µg/mL (≈ 33.9 µM)
diameter of the inhibition zone (DIZ) [7]: 14 mm
MIC [8]: 20 µg/mL (≈ 33.9 µM)
MIC [9]: 15 µg/mL (≈ 25.4 µM)
MIC [10]: 25 µg/mL (≈ 42.4 µM)
MIC [11]: 20 µg/mL (≈ 33.9 µM)
MIC [12]: 25 µg/mL (≈ 42.4 µM)

Structure (SMILES): O=C(O)c1cn(C2CC2)c2cc(N3CCNCC3)c(F)cc2c1=O [CIPROFLOXACIN]
diameter of the inhibition zone (DIZ) [1]: 28 mm
diameter of the inhibition zone (DIZ) [2]: 28 mm
diameter of the inhibition zone (DIZ) [3]: 30 mm
diameter of the inhibition zone (DIZ) [4]: 24 mm
diameter of the inhibition zone (DIZ) [5]: 22 mm
MIC [6]: 10 µg/mL (≈ 30.2 µM)
diameter of the inhibition zone (DIZ) [7]: 26 mm
MIC [8]: 10 µg/mL (≈ 30.2 µM)
MIC [10]: 10 µg/mL (≈ 30.2 µM)
MIC [11]: 10 µg/mL (≈ 30.2 µM)
MIC [12]: 10 µg/mL (≈ 30.2 µM)

Structure (SMILES): Cc1cc(/N=C2\C(=O)N(S(=O)(=O)c3ccc([N+](=O)[O-])cc3)c3ccc(OC(F)(F)F)cc32)ccc1N1C(=O)c2ccc(Cl)cc2C1=O
diameter of the inhibition zone (DIZ) [1]: 18 mm
diameter of the inhibition zone (DIZ) [2]: 22 mm
diameter of the inhibition zone (DIZ) [3]: 20 mm
diameter of the inhibition zone (DIZ) [4]: 18 mm
diameter of the inhibition zone (DIZ) [5]: 14 mm
MIC [6]: 10 µg/mL (≈ 14.6 µM)
diameter of the inhibition zone (DIZ) [7]: 20 mm
MIC [8]: 10 µg/mL (≈ 14.6 µM)
MIC [9]: 10 µg/mL (≈ 14.6 µM)
MIC [10]: 15 µg/mL (≈ 21.9 µM)
MIC [11]: 10 µg/mL (≈ 14.6 µM)
MIC [12]: 10 µg/mL (≈ 14.6 µM)

Structure (SMILES): Cc1cc(/N=C2\C(=O)N(S(C)(=O)=O)c3ccc([N+](=O)[O-])cc32)ccc1N1C(=O)c2ccc(Cl)cc2C1=O
diameter of the inhibition zone (DIZ) [1]: 18 mm
diameter of the inhibition zone (DIZ) [2]: 14 mm
diameter of the inhibition zone (DIZ) [3]: 24 mm
diameter of the inhibition zone (DIZ) [4]: 18 mm
diameter of the inhibition zone (DIZ) [5]: 16 mm
MIC [6]: 15 µg/mL (≈ 27.8 µM)
diameter of the inhibition zone (DIZ) [7]: 16 mm
MIC [8]: 10 µg/mL (≈ 18.6 µM)
MIC [9]: 10 µg/mL (≈ 18.6 µM)
MIC [10]: 15 µg/mL (≈ 27.8 µM)
MIC [11]: 10 µg/mL (≈ 18.6 µM)
MIC [12]: 15 µg/mL (≈ 27.8 µM)

Structure (SMILES): Cc1cc(/N=C2\C(=O)N(S(=O)(=O)C(F)(F)F)c3ccc(OC(F)(F)F)cc32)ccc1N1C(=O)c2ccc(Cl)cc2C1=O
diameter of the inhibition zone (DIZ) [1]: 10 mm
diameter of the inhibition zone (DIZ) [2]: 20 mm
diameter of the inhibition zone (DIZ) [3]: 23 mm
diameter of the inhibition zone (DIZ) [4]: 12 mm
diameter of the inhibition zone (DIZ) [5]: 20 mm
MIC [6]: 10 µg/mL (≈ 15.8 µM)
diameter of the inhibition zone (DIZ) [7]: 18 mm
MIC [8]: 15 µg/mL (≈ 23.7 µM)
MIC [9]: 10 µg/mL (≈ 15.8 µM)
MIC [10]: 10 µg/mL (≈ 15.8 µM)
MIC [11]: 15 µg/mL (≈ 23.7 µM)
MIC [12]: 15 µg/mL (≈ 23.7 µM)

Structure (SMILES): CCCN1C(=O)/C(=N\c2ccc(N3C(=O)c4ccc(Cl)cc4C3=O)c(C)c2)c2cc([N+](=O)[O-])ccc21
diameter of the inhibition zone (DIZ) [1]: 12 mm
diameter of the inhibition zone (DIZ) [2]: 12 mm
diameter of the inhibition zone (DIZ) [3]: 12 mm
diameter of the inhibition zone (DIZ) [4]: 10 mm
diameter of the inhibition zone (DIZ) [5]: 10 mm
MIC [6]: 20 µg/mL (≈ 39.8 µM)
diameter of the inhibition zone (DIZ) [7]: 10 mm
MIC [8]: 15 µg/mL (≈ 29.8 µM)
MIC [9]: 20 µg/mL (≈ 39.8 µM)
MIC [10]: 30 µg/mL (≈ 59.7 µM)
MIC [11]: 20 µg/mL (≈ 39.8 µM)
MIC [12]: 30 µg/mL (≈ 59.7 µM)

Structure (SMILES): Cc1cc(/N=C2\C(=O)N(S(=O)(=O)c3ccc([N+](=O)[O-])cc3)c3ccc([N+](=O)[O-])cc32)ccc1N1C(=O)c2ccc(Cl)cc2C1=O
diameter of the inhibition zone (DIZ) [1]: 20 mm
diameter of the inhibition zone (DIZ) [2]: 14 mm
diameter of the inhibition zone (DIZ) [3]: 22 mm
diameter of the inhibition zone (DIZ) [4]: 18 mm
diameter of the inhibition zone (DIZ) [5]: 16 mm
MIC [6]: 15 µg/mL (≈ 23.2 µM)
diameter of the inhibition zone (DIZ) [7]: 18 mm
MIC [8]: 10 µg/mL (≈ 15.5 µM)
MIC [9]: 10 µg/mL (≈ 15.5 µM)
MIC [10]: 15 µg/mL (≈ 23.2 µM)
MIC [11]: 10 µg/mL (≈ 15.5 µM)
MIC [12]: 10 µg/mL (≈ 15.5 µM)

Structure (SMILES): Cc1cc(/N=C2\C(=O)N(S(C)(=O)=O)c3ccc(OC(F)(F)F)cc32)ccc1N1C(=O)c2ccc(Cl)cc2C1=O
diameter of the inhibition zone (DIZ) [1]: 18 mm
diameter of the inhibition zone (DIZ) [2]: 16 mm
diameter of the inhibition zone (DIZ) [3]: 22 mm
diameter of the inhibition zone (DIZ) [4]: 14 mm
diameter of the inhibition zone (DIZ) [5]: 18 mm
MIC [6]: 15 µg/mL (≈ 26 µM)
diameter of the inhibition zone (DIZ) [7]: 16 mm
MIC [8]: 10 µg/mL (≈ 17.3 µM)
MIC [9]: 10 µg/mL (≈ 17.3 µM)
MIC [10]: 15 µg/mL (≈ 26 µM)
MIC [11]: 15 µg/mL (≈ 26 µM)
MIC [12]: 15 µg/mL (≈ 26 µM)

Structure (SMILES): C#CCN1C(=O)/C(=N\c2ccc(N3C(=O)c4ccc(Cl)cc4C3=O)c(C)c2)c2cc(OC(F)(F)F)ccc21
diameter of the inhibition zone (DIZ) [1]: 10 mm
diameter of the inhibition zone (DIZ) [2]: 14 mm
diameter of the inhibition zone (DIZ) [3]: 10 mm
diameter of the inhibition zone (DIZ) [4]: 12 mm
diameter of the inhibition zone (DIZ) [5]: 11 mm
MIC [6]: 15 µg/mL (≈ 27.9 µM)
diameter of the inhibition zone (DIZ) [7]: 10 mm
MIC [8]: 15 µg/mL (≈ 27.9 µM)
MIC [9]: 20 µg/mL (≈ 37.2 µM)
MIC [10]: 25 µg/mL (≈ 46.5 µM)
MIC [11]: 15 µg/mL (≈ 27.9 µM)
MIC [12]: 30 µg/mL (≈ 55.8 µM)

Structure (SMILES): Cc1cc(/N=C2\C(=O)N(Cc3ccccc3)c3ccc([N+](=O)[O-])cc32)ccc1N1C(=O)c2ccc(Cl)cc2C1=O
diameter of the inhibition zone (DIZ) [1]: 10 mm
diameter of the inhibition zone (DIZ) [2]: 14 mm
diameter of the inhibition zone (DIZ) [3]: 16 mm
diameter of the inhibition zone (DIZ) [4]: 14 mm
diameter of the inhibition zone (DIZ) [5]: 10 mm
MIC [6]: 15 µg/mL (≈ 27.2 µM)
diameter of the inhibition zone (DIZ) [7]: 12 mm
MIC [8]: 15 µg/mL (≈ 27.2 µM)
MIC [9]: 15 µg/mL (≈ 27.2 µM)
MIC [10]: 25 µg/mL (≈ 45.4 µM)
MIC [11]: 15 µg/mL (≈ 27.2 µM)
MIC [12]: 30 µg/mL (≈ 54.5 µM)

Further lines, with some results ahead:

MIC [6]: 20 µg/mL (≈ 46.5 µM)
MIC [8]: 15 µg/mL (≈ 34.9 µM)
MIC [9]: 20 µg/mL (≈ 46.5 µM)
MIC [10]: 25 µg/mL (≈ 58.2 µM)
MIC [11]: 15 µg/mL (≈ 34.9 µM)
MIC [12]: 10 µg/mL (≈ 23.3 µM)
Structure (SMILES): Cc1ccc2c(c1)/C(=N/c1ccc(N3C(=O)c4ccc(Cl)cc4C3=O)c(C)c1)C(=O)N2
diameter of the inhibition zone (DIZ) [1]: 10 mm
diameter of the inhibition zone (DIZ) [2]: 10 mm
diameter of the inhibition zone (DIZ) [3]: 12 mm
diameter of the inhibition zone (DIZ) [4]: 16 mm
diameter of the inhibition zone (DIZ) [5]: 12 mm
diameter of the inhibition zone (DIZ) [7]: 20 mm

MIC [6]: 20 µg/mL (≈ 40.1 µM)
MIC [8]: 20 µg/mL (≈ 40.1 µM)
MIC [9]: 15 µg/mL (≈ 30.1 µM)
MIC [10]: 30 µg/mL (≈ 60.1 µM)
MIC [11]: 15 µg/mL (≈ 30.1 µM)
MIC [12]: 25 µg/mL (≈ 50.1 µM)
Structure (SMILES): C#CCN1C(=O)/C(=N\c2ccc(N3C(=O)c4ccc(Cl)cc4C3=O)c(C)c2)c2cc([N+](=O)[O-])ccc21
diameter of the inhibition zone (DIZ) [1]: 8 mm
diameter of the inhibition zone (DIZ) [2]: 10 mm
diameter of the inhibition zone (DIZ) [3]: 18 mm
diameter of the inhibition zone (DIZ) [4]: 14 mm
diameter of the inhibition zone (DIZ) [5]: 8 mm
diameter of the inhibition zone (DIZ) [7]: 13 mm

MIC [6]: 15 µg/mL (≈ 30 µM)
MIC [8]: 10 µg/mL (≈ 20 µM)
MIC [9]: 10 µg/mL (≈ 20 µM)
MIC [10]: 15 µg/mL (≈ 30 µM)
MIC [11]: 10 µg/mL (≈ 20 µM)
MIC [12]: 10 µg/mL (≈ 20 µM)
Structure (SMILES): Cc1cc(/N=C2\C(=O)Nc3ccc(OC(F)(F)F)cc32)ccc1N1C(=O)c2ccc(Cl)cc2C1=O
diameter of the inhibition zone (DIZ) [1]: 18 mm
diameter of the inhibition zone (DIZ) [2]: 14 mm
diameter of the inhibition zone (DIZ) [3]: 24 mm
diameter of the inhibition zone (DIZ) [4]: 20 mm
diameter of the inhibition zone (DIZ) [5]: 16 mm
diameter of the inhibition zone (DIZ) [7]: 18 mm

MIC [6]: 15 µg/mL (≈ 32.5 µM)
MIC [8]: 10 µg/mL (≈ 21.7 µM)
MIC [9]: 10 µg/mL (≈ 21.7 µM)
MIC [10]: 15 µg/mL (≈ 32.5 µM)
MIC [11]: 10 µg/mL (≈ 21.7 µM)
MIC [12]: 10 µg/mL (≈ 21.7 µM)
Structure (SMILES): Cc1cc(/N=C2\C(=O)Nc3ccc([N+](=O)[O-])cc32)ccc1N1C(=O)c2ccc(Cl)cc2C1=O
diameter of the inhibition zone (DIZ) [1]: 20 mm
diameter of the inhibition zone (DIZ) [2]: 11 mm
diameter of the inhibition zone (DIZ) [3]: 22 mm
diameter of the inhibition zone (DIZ) [4]: 18 mm
diameter of the inhibition zone (DIZ) [5]: 16 mm
diameter of the inhibition zone (DIZ) [7]: 20 mm
